The target in this series is T1, rat Oct3 (Rattus norvegicus, UniProt O88446).
T1 sequence (O88446 1-551): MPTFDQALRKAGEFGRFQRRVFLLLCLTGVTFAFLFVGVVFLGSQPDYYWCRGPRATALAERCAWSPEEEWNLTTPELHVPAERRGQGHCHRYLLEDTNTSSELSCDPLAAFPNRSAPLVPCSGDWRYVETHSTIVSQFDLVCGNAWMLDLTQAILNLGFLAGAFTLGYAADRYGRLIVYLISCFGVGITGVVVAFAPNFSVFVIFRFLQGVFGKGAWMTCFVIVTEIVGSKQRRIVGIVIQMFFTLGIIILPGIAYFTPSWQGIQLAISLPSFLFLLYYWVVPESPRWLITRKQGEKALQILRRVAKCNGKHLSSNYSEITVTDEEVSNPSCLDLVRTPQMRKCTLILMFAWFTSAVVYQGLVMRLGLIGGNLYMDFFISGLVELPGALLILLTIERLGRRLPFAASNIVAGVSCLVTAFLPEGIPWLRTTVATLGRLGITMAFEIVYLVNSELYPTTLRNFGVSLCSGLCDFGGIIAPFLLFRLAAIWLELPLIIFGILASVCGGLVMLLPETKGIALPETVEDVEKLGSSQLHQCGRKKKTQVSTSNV

On to `O=C(/C=C/c1ccc(O)c(O)c1/C=C/c1ccc(O)c(O)c1)O[C@H](Cc1ccc(O)c(O)c1)C(=O)O` [Salvianolic acid A, salvianolic acid A], for which the “TransportTC/TransportMC ratio (net transport ratio)” value is listed as 1.19 ± 0.14.
